Test results from ChEMBL document CHEMBL1667833, “Potent radiosensitizing agents: 5-methylselenyl- and 5-phenylselenyl-methyl-2'-deoxyuridine” (Bioorg Med Chem Lett, 2011).

Columns and labels:
[1] = system: NCI-H460; assay: Potentiation of gamma-irradiation-induced cytotoxicity against human H460 cells assessed as dose enhancement ratio at 300 uM administered 24 hrs before 2-8 Gy irradiation measured after 12 days; assay type: functional
[2] = system: NCI-H460; assay: Cytotoxicity against human H460 cells assessed as cell viability after 72 hrs by calorimetric assay; assay type: functional, cell-based; conditions: NCI-H460, 72 h
[3] = system: NCI-H460; assay: Potentiation of gamma-irradiation-induced cytotoxicity against human H460 cells assessed as dose enhancement ratio at 50 uM administered 24 hrs before 2-8 Gy irradiation measured after 12 days; assay type: functional

| Compound | Ratio [1] | IC50 [2] [µM] | Ratio [3] |
| --- | --- | --- | --- |
| O=c1[nH]c(=O)n([C@H]2C[C@H](O)[C@@H](CO)O2)cc1C[Se]c1ccccc1 | 1.12 | 500 | – |
| C[Se]Cc1cn([C@H]2C[C@H](O)[C@@H](CO)O2)c(=O)[nH]c1=O | – | 100 | 1.2 |
